Measured values: patent US11191762B2, “Alkyl substituted triazole compounds as agonists of the APJ Receptor” (priority 2016, dated 2021)
pEC50: −log10 of the molar value.

These compounds were tested against human APJ receptor (Homo sapiens (Human), UniProt P35414) (assay: biochemical). Details: [35S]GTPγS binding, membranes from CHO cells stably expressing human APJ receptor; read-out: Activity hAPJ SPA EC50 IP.
Format: biochemical
How it was run: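 [35S]GTPγS binding to membranes from CHO cells stably expressing human APJ, captured on WGA PS beads (5 μg/well). Buffer: 20 mM HEPES pH 7.5, 5 mM MgCl2, 100 mM NaCl, 0.1% BSA, with 3 μM GDP and 0.1 nM [35S]GTPγS final; compounds tested as 22-point 2-fold dilutions.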

Sequence of human APJ receptor (P35414 whole entry): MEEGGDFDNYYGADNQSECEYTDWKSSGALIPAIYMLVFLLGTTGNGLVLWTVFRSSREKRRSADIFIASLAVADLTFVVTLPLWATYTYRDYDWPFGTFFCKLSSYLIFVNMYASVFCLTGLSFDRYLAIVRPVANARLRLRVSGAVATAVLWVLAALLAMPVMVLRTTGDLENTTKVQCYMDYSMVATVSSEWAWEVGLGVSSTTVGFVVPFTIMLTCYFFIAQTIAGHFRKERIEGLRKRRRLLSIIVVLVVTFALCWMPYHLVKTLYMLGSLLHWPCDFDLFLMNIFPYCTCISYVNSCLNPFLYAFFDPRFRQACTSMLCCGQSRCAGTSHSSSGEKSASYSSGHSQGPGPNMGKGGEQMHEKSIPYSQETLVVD

First: COc1cccc(OC)c1-n1c(CCN(C)C)nnc1NS(=O)(=O)[C@@H](C)[C@H](OC)c1ncc(C)cn1 [Example 51.0]
Second: COCc1nnc(NS(=O)(=O)[C@@H](C)[C@@H](OC(C)C)c2ncc(C)cn2)n1-c1cc(OC)ccc1Cl [Example 163.0]
The pEC50 of the first is 1.12 log units lower: 6.28 for the first, 7.40 for the second. The second is the more potent here.

Going from `COc1cccc(OC)c1-n1c(Cc2ccc(C)cn2)nnc1NS(=O)(=O)[C@@H](C)[C@H](C)c1ncc(C)cn1` [Example 20.0, (2S,3R)-N-(4-(2,6-dimethoxyphenyl)-5-((5-methyl-2-pyridinyl)methyl)-4H-1,2,4-triazol-3-yl)-3-(5-methyl-2-pyrimidinyl)-2-butanesulfonamide] to `COc1ncnc(OC)c1-n1c(COCC(F)(F)F)nnc1NS(=O)(=O)[C@@H](C)[C@H](OC)c1ncc(Cl)cn1` [Example 135.0, (1R,2S)-1-(5-chloro-2-pyrimidinyl)-N-(4-(4,6-dimethoxy-5-pyrimidinyl)-5-((2,2,2-trifluoroethoxy)methyl)-4H-1,2,4-triazol-3-yl)-1-methoxy-2-propanesulfonamide], the pEC50 rises from less than 5.38 to 7.40. The second is the more potent here.

`COCc1nnc(NS(=O)(=O)[C@@H](C)[C@H](C)c2ncc(Cl)cn2)n1-c1cc(OC)ccc1Cl` [Example 162.0] and `COc1cccc(OC)c1-n1c(Cc2ccccn2)nnc1NS(=O)(=O)[C@@H](C)[C@H](C)c1ncc(Cl)cn1` [Example 35.0, (2S,3R)-3-(5-chloro-2-pyrimidinyl)-N-(4-(2,6-dimethoxyphenyl)-5-(2-pyridinylmethyl)-4H-1,2,4-triazol-3-yl)-2-butanesulfonamide] are within 0.2 log units of each other in pEC50: 7.62 for the first, 7.49 for the second.

Going from “(1R.2S)-1-(5-chloropyrimidin-2-yl)-1-methoxy-N-(4-(1-methylcyclopropyl)-5-(((R)-tetrahydrofuran-2-yl)methyl)-4H-1,2,4-triazol-3-yl)propane-2-sulfonamide or (1R,2S)-1-(5-chloropyrimidin-2-yl)-1-methoxy-N-(4-(1-methylcyclopropyl)-5-(((S)-tetrahydrofuran-2-yl)methyl)-4H-1,2,4-triazol-3-yl)propane-2-sulfonamide [Example 57.0]” to `COc1cccc(OC)c1-n1c(C[C@@H]2CCS(=O)(=O)C2)nnc1NS(=O)(=O)[C@@H](C)[C@H](C)c1ncc(Cl)cn1` (mixture of isomers) [Example 47.0, (2S,3R)-3-(5-chloro-2-pyrimidinyl)-N-(4-(2,6-dimethoxyphenyl)-5-(((3R)-1,1-dioxidotetrahydro-3-thiophenyl)methyl)-4H-1,2,4-triazol-3-yl)-2-butanesulfonamide and (2S,3R)-3-(5-chloro-2-pyrimidinyl)-N-(4-(2,6-dimethoxyphenyl)-5-(((3S)-1,1-dioxidotetrahydro-3-thiophenyl)methyl)-4H-1,2,4-triazol-3-yl)-2-butanesulfonamide], the pEC50 falls from 7.38 to 7.15 (0.23 log units).

`COc1cccc(OC)c1-n1c(NS(=O)(=O)[C@@H](C)[C@H](C)c2ncc(C)cn2)nnc1C(F)(F)c1ccccn1` [Example 137.0] gave a pEC50 of 6.64.

Same assay, conditions: read-out: Activity hAPJ SPA EC50 IP

Compared with `COCc1nnc(NS(=O)(=O)[C@@H](C)[C@H](C)c2ncc(Cl)cn2)n1-c1c(OC)cccc1OC` [Example 10.0, (2S,3R)-3-(5-chloro-2-pyrimidinyl)-N-(4-(2,6-dimethoxyphenyl)-5-(methoxymethyl)-4H-1,2,4-triazol-3-yl)-2-butanesulfonamide], `COCc1nnc(NS(=O)(=O)[C@@H](C)[C@H](C)c2ncc(F)cn2)n1-c1c(OC)cccc1OC` [Example 68.0, (2S,3R)-N-(4-(2,6-dimethoxyphenyl)-5-(methoxymethyl)-4H-1,2,4-triazol-3-yl)-3-(5-fluoropyrimidin-2-yl)butane-2-sulfonamide] is 0.34 log units lower in pEC50: 7.82 for the first, 7.48 for the second.

Each compound was assayed against human APJ-AT1R (angiotensin Type 1) double stable CHO cell line (Homo sapiens (Human), UniProt P35414) (assay: IP1 accumulation (TR-FRET), AngII cooperativity, APJ-AT1R double stable cells). Details: APJ small molecule agonists in the presence of AngII.
Sequence of human APJ-AT1R (angiotensin Type 1) double stable CHO cell line (P35414 whole entry): as above
Format: cell-based
Method: Single and double stable recombinant cell lines were generated for human APJ and the AT1R receptor in CHO K1 cells tagged either with FLAG or hemagglutinin (HA) tag. Briefly, the CHO-K1 APJ/AT1R cells were seeded in culture medium of DMEM-F12 and 10% FBS at a density of 15 k/well in a 96 well plate overnight. The next day, the culture medium was replaced with medium containing no serum for 4 h. The compound AngII at a range of concentrations (1 pM-10 μM) with or without different concentrations of APJ agonists were diluted in stimulation buffer and added to the cell plate. The plate was sealed and incubated for 1 h. This was followed by addition of IP-d2 conjugate followed by europium cryptate antibody conjugate into the wells. The plate was sealed, followed with incubation for 2 h at RT. Time-resolved fluorescence resonance energy (TR-FRET) at 620 nm and 665 nm was measured after 2 h with an Envision reader. The signal ratios and delta F were calculated and the amount of IP1 produced was inversely proportional to the TR-FRET ratio, 665/620 nm.

In the case of `CCCCc1nc(Cl)c(CO)n1Cc1ccc(-c2ccccc2-c2nn[nH]n2)cc1` [losartan], the “effect of losartan on APJ agonist induced cooperativity” value was “relieved this cooperativity”.

These compounds were tested on heart failure rats (assay: Cardiac function with ACE inhibitor captopril and APJ agonist in heart failure rats in vivo). Details: captopril alone, acute settings.
Parameters: species or system rat
Text: The interaction between […] (ACE2) and Apelin biology is complicated. To investigate the interaction between the Apelin-APJ and ACE signalling pathways, we examined the improvement in cardiac function with APJ small molecule agonists in the presence of ACE inhibitor captopril in heart failure rats in vivo. […] However, in the presence of an APJ agonist, there was a shift in potency to the left with marked improvement in contractility and ejection fraction without changes in heart rate. These findings provide a new reference for the understanding of the regulation of ACE2 for the renin angiotensin aldosterone system (RAAS), independent of AT1R signaling and offer new potential drug targets for the treatment of diseases such as hypertension and heart failure. This work clearly establishes that combination of an agonist of the APJ receptor with an ARB such as losartan and/or with an ACE inhibitor such as captopril which may play an important role in providing greater efficacy in treating heart failure patients, for example in improving contractility and ejection fraction without changing the heart rate.

`C[C@H](CS)C(=O)N1CCC[C@H]1C(=O)O` [Captopril, captopril] was tested, and the “contractility or ejection fraction” value was “does not show a marked improvement in contractility or ejection fraction”.
